Data on five molecules can be found in ChEMBL document CHEMBL1201862, “PubChem BioAssay data set” (2004).

The target of test [1] is 1-acylglycerol-3-phosphate O-acyltransferase ABHD5/Perilipin-5 (Homo sapiens, UniProt Q00G26+Q8WTS1). Description: Luminescence-based biochemical high throughput dose response assay for inhibitors of the interaction of the lipase co-activator protein, abhydrolase domain containing 5 (ABHD5) with perilipin-5 (MLDP; PLIN5) (2K validation set). [Related pubchem assays (depositor defined):AID493035, AID493241].

A further test concerns the target Troponin, cardiac muscle (Homo sapiens, UniProt P19429+P45379+P63316). The experiment in a line: Fluorescence-based biochemical high throughput dose response assay for activators of the calcium sensitivity of cardiac Regulated Thin Filaments (RTF). [Related pubchem assays (depositor defined):AID493008, AID493018, AID504382, AID504383]. It is filed as protein-complex assay.

A further test concerns the target Perilipin-1/ABHD5 (Homo sapiens, UniProt O60240+Q8WTS1). The experiment in a line: Luminescence-based biochemical high throughput dose response assay for inhibitors of the interaction of the lipase co-activator protein, abhydrolase domain containing 5 (ABHD5) with perilipin-1 (PLIN1) (2K validation set). [Related pubchem assays (depositor defined):AID493027, AID493057].

Test [2] addresses T1, Mu-type opioid receptor (Homo sapiens, UniProt P35372). Description: mu opioid receptor blockers – image-based, SAR follow-up (AID 2420).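 Also: compounds added before stimulation of receptor with agonist DAMGO.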 It is filed as functional.
The target in test [3] is T2, Kappa-type opioid receptor (Homo sapiens, UniProt P41145). Description: kappa opioid receptor blockers, cell-based, luminescence, beta-arrestin, SAR follow-up (AID 2285). Type of test: functional.
For a further test, the target named is Beta-galactosidase (Escherichia coli, UniProt Q8VNN2). It is filed as functional.
A further test deals with Streptococcus. The experiment in a line: GAS UMAA2166 growth inhibition – luminescence, BacTiterGlo, counter-screen for streptokinase expression inhibitor project, dose response (AID 1915).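 Also: potency for reduction of bacterial viability or growth.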 Type of test: functional, organism-based.
In test [4] the target is T3, Delta-type opioid receptor (Homo sapiens, UniProt P41143). The experiment in a line: delta opioid receptor blockers – image-based, SAR follow-up (AID 2357). Type of test: functional.
For test [5], the target named is T2, Kappa-type opioid receptor. It is filed as functional.
Test [6] addresses T2, Kappa-type opioid receptor. Description: kappa opioid receptor activation potency – imaging, image-based, SAR follow-up (AID 2359). It is filed as functional.
Test [7] addresses T2, Kappa-type opioid receptor. Type of test: functional. The source holds these as a separate data set.
The target of test [8] is T2, Kappa-type opioid receptor. The experiment in a line: kappa opioid receptor blockers, image-based, SAR follow-up (AID 2348). It is filed as functional.
Test [9] addresses Dual specificity protein phosphatase 3 (Homo sapiens, UniProt P51452). Description: SAR VHR1 Fluorescent Assay for In Vitro dose response studies Set 2. [Related pubchem assays (depositor defined):AID1654, AID1661, AID1878]. It is filed as functional.
For test [10], the target named is T1, Mu-type opioid receptor. Description: mu opioid receptor activators, image-based, SAR follow-up (AID 2352). It is filed as functional.
Another test has as its target T4, Streptokinase A (Streptococcus pyogenes serotype M1, UniProt P10520).
T4 sequence (P10520 whole entry): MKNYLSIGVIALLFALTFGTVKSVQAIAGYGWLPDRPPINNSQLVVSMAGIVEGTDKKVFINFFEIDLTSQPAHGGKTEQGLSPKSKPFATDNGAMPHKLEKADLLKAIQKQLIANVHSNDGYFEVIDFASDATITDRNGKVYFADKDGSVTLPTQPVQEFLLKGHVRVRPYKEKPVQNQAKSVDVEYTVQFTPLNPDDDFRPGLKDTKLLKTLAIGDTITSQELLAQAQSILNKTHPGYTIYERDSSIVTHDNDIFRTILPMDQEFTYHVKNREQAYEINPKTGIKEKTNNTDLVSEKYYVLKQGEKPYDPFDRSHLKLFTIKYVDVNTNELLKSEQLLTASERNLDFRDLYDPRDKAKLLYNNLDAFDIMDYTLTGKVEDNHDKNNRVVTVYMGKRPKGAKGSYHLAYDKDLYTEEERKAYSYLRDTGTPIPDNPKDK
Description: viability-normalized secreted streptokinase activity reduction – plasminogen activation absorbance, OD405, dose response (AID 1914).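 Also: secreted streptokinase activity via plasminogen activation per viability signal from cell pellet.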 It is filed as functional, Streptococcus pyogenes M1 GAS.

Test [11] has as its target T3, Delta-type opioid receptor. The experiment in a line: DOR agonists, SAR follow-up, image-based (AID 2370). It is filed as functional.
Test [12] deals with T5, Tyrosine-protein phosphatase non-receptor type 7 (Homo sapiens, UniProt P35236).
T5 sequence (P35236 whole entry): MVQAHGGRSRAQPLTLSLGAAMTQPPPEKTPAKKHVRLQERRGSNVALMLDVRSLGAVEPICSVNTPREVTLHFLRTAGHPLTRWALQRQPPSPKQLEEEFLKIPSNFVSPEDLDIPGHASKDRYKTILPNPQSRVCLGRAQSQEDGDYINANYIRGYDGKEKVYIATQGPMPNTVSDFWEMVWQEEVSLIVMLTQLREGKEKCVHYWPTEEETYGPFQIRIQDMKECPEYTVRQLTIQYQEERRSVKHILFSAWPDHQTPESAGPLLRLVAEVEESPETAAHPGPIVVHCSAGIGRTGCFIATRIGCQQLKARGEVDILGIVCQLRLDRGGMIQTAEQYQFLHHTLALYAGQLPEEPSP
The experiment in a line: SAR analysis of chemical inhibitors of HePTP using a Fluorescent assay - Set 2. [Related pubchem assays (depositor defined):AID1059, AID1077, AID1661, AID2085, AID521]. It is filed as functional.

The subject of test [13] is Streptococcus sp. 'group A'. The experiment in a line: Streptococcus pyogenes SK(-)GAS viability under kanamycin – luminescence, BacTiterGlo, confirmation, counter-screen for streptokinase expression inhibitor project, dose response (AID 1900). It is filed as functional, organism-based. A general note: A counterscreen serves to expose hits that act by an unwanted route or on another target.

Test [14] has as its target T1, Mu-type opioid receptor. Description: SAR Analysis of Antagonists of the MOR Receptor using an Image-Based Assay - Set 3. [Related pubchem assays (depositor defined):AID1777, AID1785, AID1786, AID1966, AID2133, AID2136, AID2284, AID2285, AID2420]. It is filed as functional.
Test [15] addresses T2, Kappa-type opioid receptor. Description: SAR analysis of Antagonists of the Kappa Opioid Receptor (KOR) using an Image-Based Assay - Set 3. [Related pubchem assays (depositor defined):AID1777, AID1785]. Type of test: functional.
Test [16] deals with T3, Delta-type opioid receptor. The experiment in a line: SAR Analysis of Antagonists of the DOR Receptor using an Image-Based Assay - Set 3. [Related pubchem assays (depositor defined):AID1777, AID1785]. It is filed as functional.
Test [17] addresses T2, Kappa-type opioid receptor. Description: SAR analysis of small molecule antagonists of the kappa opioid receptor via a luminescent beta-arrestin assay - Set 3. [Related pubchem assays (depositor defined):AID1777, AID1778, AID1785, AID1786, AID1966, AID2133, AID2136, AID2285, AID2495]. Type of test: functional.
For a further test, the target named is Hexokinase (Trypanosoma brucei, UniProt Q38C41). The experiment in a line: Confirmation assay for inhibitors of Trypanosoma brucei hexokinase 1-Analogue-first series. [Related pubchem assays (depositor defined):AID1430, AID1632, AID2516, AID2560, AID2579, AID2600, AID449725, AID492951]. Type of test: functional.
A further test can be described thus: cells. It is filed as functional.
Test [18] is described as follows: HepG2 cell cytotoxicity, dose response, cytotoxicity control for non-replicating M. tuberculosis project (AID 489018). It is filed as functional. Particulars: Mycobacterium tuberculosis.
Test [19] has as its target T6, Mannose-6-phosphate isomerase (Homo sapiens, UniProt P34949).
T6 sequence (P34949 whole entry): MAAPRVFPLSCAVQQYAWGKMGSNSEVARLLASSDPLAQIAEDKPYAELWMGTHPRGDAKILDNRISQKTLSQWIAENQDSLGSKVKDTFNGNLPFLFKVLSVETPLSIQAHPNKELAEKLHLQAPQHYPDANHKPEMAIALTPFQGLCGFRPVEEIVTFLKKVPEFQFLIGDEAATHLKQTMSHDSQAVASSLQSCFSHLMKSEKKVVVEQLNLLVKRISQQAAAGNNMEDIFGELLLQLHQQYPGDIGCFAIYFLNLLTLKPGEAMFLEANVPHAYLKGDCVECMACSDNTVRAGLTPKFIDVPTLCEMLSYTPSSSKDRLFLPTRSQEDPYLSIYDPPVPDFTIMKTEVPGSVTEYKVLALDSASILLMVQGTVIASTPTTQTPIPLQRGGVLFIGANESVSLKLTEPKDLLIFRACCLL
Description: MPI enzyme activity inhibition – biochemical, fluorescence intensity, coupled assay, primary screen (AID 1209).

For test [20], the target named is T6, Mannose-6-phosphate isomerase. The experiment in a line: MPI inhibition at elevated mannose 6-phosphate – biochemical, fluorescence intensity, high mannose 6-phosphate, primary screen (AID 1220).
Test [21] can be described thus: Luminescence Cell-Based Dose Response HTS to Identify Inhibitors of 5'UTR Stem-Loop Driven Prion Protein mRNA Translation in H4 Neuroglioblastoma Cells. [Related pubchem assays: 1827 (Project Summary), 1813 (Primary HTS)]. Type of test: functional.
Test [22] can be described thus: Vero E6 cell cytotoxicity, dose response, cytotoxicity control for non-replicating M. tuberculosis project, secondary assay (AID 492998). It is filed as functional, VeroE6. The note with it: Vero C1008.
For test [23], the target named is Lysine-specific demethylase 4C (Homo sapiens, UniProt Q9H3R0). Description: inhibition of JMJD2C H3K9me3 demethylation – biochemical, DELFIA europium, cherry-picked samples, dose response (AID 488835). It is filed as functional.
For a further test, the system named is INS1. The experiment in a line: INS-1E survival protection against cytokine death – cell-based, luminescence, retest, dose response (AID 449756).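 Also: cell death triggered by IL-1 beta plus TNF-alpha plus IFN-gamma mixture; protective hits raise ATP signal compared with cytokine alone wells.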 Type of test: functional. Particulars: Rattus norvegicus.
A short description of test [24]: alpha-synuclein stem-loop luciferase translation blockers – H4 neuroglioma cells, luminescence, confirmation (AID 1988). Type of test: functional, cell-based.
The nature of test [25]: luciferase reporter signal suppression in cells – H4 neuroglioma cells, luminescence, dose response (AID 1990). Type of test: functional, cell-based.
Test [26] is described as follows: THP-1 cell cytotoxicity, dose response, cytotoxicity control for non-replicating M. tuberculosis project (AID 489025). Type of test: functional.
Test [27] is described as follows: NIH3T3 cell viability loss – ATP luminescence, mouse fibroblasts, counter-screen, dose response (AID 2010).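 Also: cells exposed to compound for about 90 hours before reading.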 Type of test: functional, cell-based.
A short description of test [28]: Trypanosoma cruzi growth suppression in host cells – NIH3T3 host cells, beta-gal luminescence, confirmation (AID 2044).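 Also: intracellular parasites grown in NIH/3T3 mouse fibroblasts as host cells; luminescent beta-galactosidase reporter signal from transgenic T. cruzi replicating inside host cells; inhibitors lower the luminescence signal.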 It is filed as functional, cell-based.
The target in a further test is Protein Wnt-3a (Mus musculus, UniProt P27467). The experiment in a line: antagonism of Wnt3a pathway luciferase reporter – Wnt-LIGHT cells, luminescence, selectivity assay for Gli-SUFU antagonist project, dose response (AID 651570).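 Also: Wnt-LIGHT reporter cells stimulated with conditioned medium from Wnt3a-producing cells.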 Particulars: read-out: IC50_Mean. It is filed as functional. Background: A reporter such as luciferase makes a cellular process visible.

Activity calls are given as the source filed them.

T3 sequence (P41143 whole entry): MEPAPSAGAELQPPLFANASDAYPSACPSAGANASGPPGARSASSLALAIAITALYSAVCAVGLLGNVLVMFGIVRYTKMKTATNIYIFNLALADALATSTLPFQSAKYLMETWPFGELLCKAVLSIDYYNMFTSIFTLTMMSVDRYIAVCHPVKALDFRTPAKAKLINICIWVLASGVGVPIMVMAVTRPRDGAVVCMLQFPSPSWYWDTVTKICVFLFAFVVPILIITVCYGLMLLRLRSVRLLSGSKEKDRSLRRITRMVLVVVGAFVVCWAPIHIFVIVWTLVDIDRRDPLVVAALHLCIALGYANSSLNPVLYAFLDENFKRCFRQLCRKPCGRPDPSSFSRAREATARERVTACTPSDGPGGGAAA
T2 sequence (P41145 whole entry): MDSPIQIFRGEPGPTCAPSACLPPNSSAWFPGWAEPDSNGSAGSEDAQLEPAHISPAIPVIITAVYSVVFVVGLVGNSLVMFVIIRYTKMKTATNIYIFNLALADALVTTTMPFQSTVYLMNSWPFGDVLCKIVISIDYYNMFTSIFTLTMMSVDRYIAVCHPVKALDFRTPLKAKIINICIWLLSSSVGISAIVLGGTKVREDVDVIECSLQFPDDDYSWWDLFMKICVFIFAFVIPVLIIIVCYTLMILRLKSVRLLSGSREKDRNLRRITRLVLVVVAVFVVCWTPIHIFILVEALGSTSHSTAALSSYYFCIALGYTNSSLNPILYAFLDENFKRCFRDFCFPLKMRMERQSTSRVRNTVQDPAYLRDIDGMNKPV
T1 sequence (P35372 whole entry): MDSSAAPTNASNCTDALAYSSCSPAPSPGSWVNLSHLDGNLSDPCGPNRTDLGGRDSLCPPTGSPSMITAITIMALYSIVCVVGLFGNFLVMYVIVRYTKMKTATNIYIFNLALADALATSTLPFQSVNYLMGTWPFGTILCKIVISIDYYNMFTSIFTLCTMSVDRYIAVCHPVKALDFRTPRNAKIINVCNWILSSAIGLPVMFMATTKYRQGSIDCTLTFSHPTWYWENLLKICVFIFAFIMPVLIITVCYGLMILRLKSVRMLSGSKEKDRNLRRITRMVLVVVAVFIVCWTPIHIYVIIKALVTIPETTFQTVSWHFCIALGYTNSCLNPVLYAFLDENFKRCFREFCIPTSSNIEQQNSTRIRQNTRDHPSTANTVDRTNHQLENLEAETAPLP
Chain of Beta-galactosidase (Q8VNN2 whole entry): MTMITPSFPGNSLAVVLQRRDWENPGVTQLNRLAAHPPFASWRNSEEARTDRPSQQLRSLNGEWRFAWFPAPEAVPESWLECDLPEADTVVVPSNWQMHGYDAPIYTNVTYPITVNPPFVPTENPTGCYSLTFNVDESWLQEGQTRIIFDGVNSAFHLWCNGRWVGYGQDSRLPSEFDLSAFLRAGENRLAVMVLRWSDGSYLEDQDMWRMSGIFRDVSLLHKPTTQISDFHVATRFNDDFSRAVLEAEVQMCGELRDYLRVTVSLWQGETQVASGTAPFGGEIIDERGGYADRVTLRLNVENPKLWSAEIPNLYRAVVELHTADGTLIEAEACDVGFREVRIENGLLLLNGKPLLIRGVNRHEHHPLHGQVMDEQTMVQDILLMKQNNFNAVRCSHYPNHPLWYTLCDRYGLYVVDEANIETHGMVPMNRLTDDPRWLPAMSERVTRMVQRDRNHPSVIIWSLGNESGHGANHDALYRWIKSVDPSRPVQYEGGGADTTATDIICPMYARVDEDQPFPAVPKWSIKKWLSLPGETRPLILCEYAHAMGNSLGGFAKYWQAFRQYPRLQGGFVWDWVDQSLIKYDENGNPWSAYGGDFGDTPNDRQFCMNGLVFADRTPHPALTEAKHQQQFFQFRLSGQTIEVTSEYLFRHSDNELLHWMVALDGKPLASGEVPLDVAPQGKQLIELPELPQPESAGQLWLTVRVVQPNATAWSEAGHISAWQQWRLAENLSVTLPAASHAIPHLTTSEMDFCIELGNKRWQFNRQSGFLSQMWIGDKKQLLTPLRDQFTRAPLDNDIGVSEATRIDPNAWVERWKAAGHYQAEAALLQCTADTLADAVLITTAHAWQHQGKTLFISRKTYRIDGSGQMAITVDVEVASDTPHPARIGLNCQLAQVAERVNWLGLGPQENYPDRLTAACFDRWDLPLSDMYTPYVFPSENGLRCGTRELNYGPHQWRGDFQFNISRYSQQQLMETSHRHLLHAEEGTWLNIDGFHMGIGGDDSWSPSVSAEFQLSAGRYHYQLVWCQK
Chain of Lysine-specific demethylase 4C (Q9H3R0 whole entry): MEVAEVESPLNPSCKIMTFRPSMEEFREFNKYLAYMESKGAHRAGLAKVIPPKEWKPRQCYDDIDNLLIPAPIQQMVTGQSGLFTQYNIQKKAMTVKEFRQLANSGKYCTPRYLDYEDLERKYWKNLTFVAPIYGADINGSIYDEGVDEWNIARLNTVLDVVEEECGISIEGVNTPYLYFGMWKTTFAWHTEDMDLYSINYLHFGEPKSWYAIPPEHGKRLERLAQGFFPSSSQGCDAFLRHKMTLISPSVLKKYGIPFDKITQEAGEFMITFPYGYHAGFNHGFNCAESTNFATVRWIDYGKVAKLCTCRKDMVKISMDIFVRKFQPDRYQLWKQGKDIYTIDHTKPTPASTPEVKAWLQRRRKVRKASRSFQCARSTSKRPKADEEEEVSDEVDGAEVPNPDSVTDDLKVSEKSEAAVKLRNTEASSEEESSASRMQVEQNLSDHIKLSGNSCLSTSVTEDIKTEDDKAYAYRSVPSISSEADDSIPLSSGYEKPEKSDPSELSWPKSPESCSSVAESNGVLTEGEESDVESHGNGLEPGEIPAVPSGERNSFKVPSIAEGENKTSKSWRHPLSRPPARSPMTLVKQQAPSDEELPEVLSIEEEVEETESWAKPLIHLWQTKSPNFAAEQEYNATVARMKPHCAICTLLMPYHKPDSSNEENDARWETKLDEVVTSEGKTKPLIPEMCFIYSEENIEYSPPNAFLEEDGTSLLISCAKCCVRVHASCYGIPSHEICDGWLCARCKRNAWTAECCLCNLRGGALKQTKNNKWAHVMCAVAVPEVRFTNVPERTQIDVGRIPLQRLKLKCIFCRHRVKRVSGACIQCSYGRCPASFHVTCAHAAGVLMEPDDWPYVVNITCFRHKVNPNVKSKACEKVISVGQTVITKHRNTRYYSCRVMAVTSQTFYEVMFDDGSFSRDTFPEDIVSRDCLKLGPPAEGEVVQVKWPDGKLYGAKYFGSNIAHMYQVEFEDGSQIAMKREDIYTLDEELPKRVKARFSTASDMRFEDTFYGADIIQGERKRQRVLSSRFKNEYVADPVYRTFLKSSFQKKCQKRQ
Chain of Hexokinase (Q38C41 whole entry): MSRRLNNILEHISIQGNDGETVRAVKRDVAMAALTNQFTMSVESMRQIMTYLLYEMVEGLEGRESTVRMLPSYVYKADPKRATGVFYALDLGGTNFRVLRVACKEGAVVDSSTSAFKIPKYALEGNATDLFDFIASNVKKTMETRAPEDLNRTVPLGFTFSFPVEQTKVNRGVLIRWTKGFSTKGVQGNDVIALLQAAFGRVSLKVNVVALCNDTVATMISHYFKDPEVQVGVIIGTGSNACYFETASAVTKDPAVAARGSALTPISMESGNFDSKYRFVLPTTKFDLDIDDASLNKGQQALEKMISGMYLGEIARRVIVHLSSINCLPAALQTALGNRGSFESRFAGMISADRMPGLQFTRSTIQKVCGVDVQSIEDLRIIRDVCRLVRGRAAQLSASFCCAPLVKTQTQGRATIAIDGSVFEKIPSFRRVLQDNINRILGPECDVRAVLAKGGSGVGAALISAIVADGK
Chain of 1-acylglycerol-3-phosphate O-acyltransferase ABHD5/Perilipin-5 (Q00G26 whole entry, the tested form may be a part): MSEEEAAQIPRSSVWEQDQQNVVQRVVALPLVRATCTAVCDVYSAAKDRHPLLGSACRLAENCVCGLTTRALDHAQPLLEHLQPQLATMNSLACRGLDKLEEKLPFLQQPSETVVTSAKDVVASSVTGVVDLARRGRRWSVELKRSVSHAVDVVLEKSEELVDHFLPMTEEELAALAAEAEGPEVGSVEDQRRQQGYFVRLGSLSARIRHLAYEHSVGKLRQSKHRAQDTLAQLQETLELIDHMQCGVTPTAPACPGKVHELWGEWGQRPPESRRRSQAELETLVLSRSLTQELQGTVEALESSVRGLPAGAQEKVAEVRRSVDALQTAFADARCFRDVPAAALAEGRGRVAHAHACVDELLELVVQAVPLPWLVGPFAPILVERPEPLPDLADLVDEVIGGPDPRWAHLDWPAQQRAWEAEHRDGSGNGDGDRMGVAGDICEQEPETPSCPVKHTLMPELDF
Chain of 1-acylglycerol-3-phosphate O-acyltransferase ABHD5/Perilipin-5 (Q8WTS1 whole entry, the tested form may be a part): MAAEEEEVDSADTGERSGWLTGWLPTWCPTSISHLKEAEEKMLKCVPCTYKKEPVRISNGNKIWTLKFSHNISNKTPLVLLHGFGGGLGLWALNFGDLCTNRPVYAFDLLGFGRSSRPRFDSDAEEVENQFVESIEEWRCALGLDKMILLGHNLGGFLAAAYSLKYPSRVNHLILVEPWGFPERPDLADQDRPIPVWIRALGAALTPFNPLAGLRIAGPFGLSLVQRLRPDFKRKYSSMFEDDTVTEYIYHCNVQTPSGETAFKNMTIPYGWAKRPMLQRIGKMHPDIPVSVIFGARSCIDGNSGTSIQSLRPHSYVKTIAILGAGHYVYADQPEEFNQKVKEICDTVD
Chain of Dual specificity protein phosphatase 3 (P51452 whole entry): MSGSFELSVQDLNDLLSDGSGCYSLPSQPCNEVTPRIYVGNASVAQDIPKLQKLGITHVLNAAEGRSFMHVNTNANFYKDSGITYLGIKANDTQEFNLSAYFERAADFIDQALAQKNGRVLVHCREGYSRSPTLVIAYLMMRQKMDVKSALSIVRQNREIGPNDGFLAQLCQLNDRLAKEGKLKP

`COc1ccccc1C(=O)Oc1ccc2c(c1)O/C(=C\c1ccncc1)C2=O`: the IC50 in test [1] is 8.12 µM (active); on Perilipin-1/ABHD5, 6.72 µM (active). Moreover, the EC50 at Troponin, cardiac muscle is 13.7 µM (inactive).

`O=C(NC(NC(=S)Nc1c(Cl)cccc1Cl)C(Cl)(Cl)Cl)OCc1ccccc1` (configuration not stated): the IC50 is 8.43 µM (active) at Mu-type opioid receptor [2]; 1.15 µM (active) in test [3]; > 32 µM (inactive) in test [4]; 2.04 µM in test [5]; 3.48 µM (active) in [7]; 0.74 µM (active) in test [8]. Besides, the values for the IC50 in test [9] and in [12] were 90 µM (active) and 63 µM (active), respectively. Moreover, the EC50 on Beta-galactosidase was > 31.5 µM (inactive); in the test with Streptococcus, 18 µM (active); in test [6], > 32 µM (inactive); on Mu-type opioid receptor [10] it was > 32 µM (inactive); at Streptokinase A, 3.01 µM (active); in [11], > 32 µM (inactive). Further, the EC50 in [13] is 1.65 µM (active).

`Cc1ccc(CN(CCNC(=O)c2ccc(CNS(=O)(=O)c3ccc(C)cc3)cc2)C(C)C)cc1`: the IC50 at Mu-type opioid receptor [14] is > 32 µM (inactive); in [15], 0.246 µM (active); in test [16], > 32 µM (inactive); in [17], 1.17 µM (active).

As for `COc1ccc(C(=O)Nc2c(C(=O)O)ccc(Cl)c2Cl)cc1`, the IC50 at Hexokinase was > 25 µM (inactive).

With `Cc1cc(N/N=C/c2ccc(O)cc2O)nc(-n2nc(C)cc2C)n1`, the IC50 was 0.18 µM (active) in the test “cells”, > 50 µM (not active) in [19], > 50 µM (not active) in test [20] and 41.3 µM (inactive) on Protein Wnt-3a. In addition, the figures for the CC50 in test [18], in test [22] and in [26] were 11.4 µM (active), 3.72 µM (active) and 8.18 µM (active), respectively. Moreover, the EC50 was 11.4 µM (active) in [21]; 11.2 µM (active) in [24]; 10.9 µM (active) in [25]; > 30 µM (not active) in test [27]; 2.05 µM (active) in test [28]. Moreover, the AC50 is 2.7 µM (active) in [23] and 0.3 µM (active) in the test on INS1.

Usually EC50 stands for the concentration giving half of the maximal effect. In general, CC50 refers to the concentration that lowers cell viability or growth by half. For orientation: AC50 means the concentration at which the activity in the assay is half-maximal.
